Patent EP4803519A1, “NOVEL PRMT5 INHIBITOR AND USE THEREOF” (Shanghai Apeiron Therapeutics Company Limited, priority 2023, dated 2025)

Tests used:
Assay type in all cases: cell-based
[1] = test system: HCT-116 MTAP(-/-)deleted cells; experiment: Inhibitory activity on proliferation of HCT-116 MTAP(-/-)deleted cells (Cell-Titer Glo); settings: Homo sapiens, 144 h, incubated 6 d, 0-1,000 nM
Experimental: (§1) Materials and cells: HCT-116 MTAP(-/-)deleted cells were purchased from Kyinno Biotechnology (China); RPMI-1640 medium, and fetal bovine serum were purchased from Thermo Fisher (United States); 384-well plates were purchased from PerkinElmer (United States); Cell-Titer Glo kit was purchased from Promega (United States).
Cell culture: HCT116 MTAP(-/-)deleted cells were cultured with RPMI 1640 medium containing 10% fetal bovine serum at 37°C in 5% carbon dioxide. Only cells in the logarithmic growth phase could be used for the test.
(§2) Test of inhibitory activity on cell proliferation: The Cell-Titer Glo kit was used to test the proliferation inhibitory activity of the compounds on HCT-116 MTAP(-/-)deleted cells. The cell concentration was adjusted, rendering that cells were inoculated into a 384-well plate at 40 µL per well and incubated overnight at 37°C and 5% carbon dioxide. 80 nL of the compound was added into each well to reach a final concentration of 0-1,000 nM (starting concentration 1,000 nM, 2.5-fold dilution, 10 points), and the cell plate with 0.2% DMSO content was incubated at 37°C and 5% carbon dioxide for 6 d. 40 µL of Cell-Titer Glo reagent was added to test cell viability.

[2] = test system: HCT-116 wild-type cells; experiment: Inhibitory activity on proliferation of HCT-116 wild-type cells (Cell-Titer Glo); settings: Homo sapiens, 144 h, incubated 6 d, 0-10,000 nM
Experimental: as §1, with “wild-type” for “MTAP(-/-)deleted”
Cell culture: HCT-116 wild-type cells were cultured in RPMI-1640 medium containing 10% fetal bovine serum at 37°C and 5% carbon dioxide. Only cells in the logarithmic growth phase could be used for the test.
Test of cell proliferation activity: Cell-Titer Glo kit was used to test the proliferation inhibitory activity of the compound on HCT-116 wild-type cells. The cell concentration was adjusted, rendering that cells were inoculated into a 384-well plate at 40 µL per well and incubated overnight at 37°C and 5% carbon dioxide. 80 nL of the compound was added to each well to reach a final concentration of 0-10,000 nM (starting concentration 10,000 nM, 2.5-fold dilution, 10 points), and the cell plate with 0.2% DMSO content was incubated at 37°C and 5% carbon dioxide for 6 d. 40 µL of Cell-Titer Glo reagent was added to test cell viability.

[3] = test system: LU99 MTAP(-/-)deleted cells; experiment: Inhibitory activity on proliferation of LU99 MTAP(-/-)deleted cells (Cell-Titer Glo); settings: Homo sapiens, Lu-99, 144 h, incubated 6 d, 0-1,000 nM
Experimental: (§3) Materials and cells: LU99 MTAP deleted cell line was purchased from Kyinno Biotechnology (China); cell culture medium and fetal bovine serum were purchased from Thermo Fisher Scientific (USA); 384-well plates were purchased from PerkinElmer (USA); Cell-Titer Glo kits were purchased from Promega (USA).
Cell culture: LU99 MTAP(-/-)deleted cells were cultured with medium containing 10% fetal bovine serum at 37°C in 5% carbon dioxide. Only cells in the logarithmic growth phase could be used for the test.
as §2, with “on LU99” for “on HCT-116”, “dioxide. 40” for “dioxide. 80”, “added to” for “added into”

[4] = test system: LU99 MTAP overexpressing cells; experiment: Inhibitory activity on proliferation of LU99 MTAP overexpressing cells (Cell-Titer Glo); settings: Homo sapiens, Lu-99, 144 h, incubated 6 d, 0-10,000 nM
Experimental: as §3, with “overexpressing” for “deleted”
Cell culture: LU99 MTAP overexpressing cells were cultured with medium containing 10% fetal bovine serum at 37°C in 5% carbon dioxide. Only cells in the logarithmic growth phase could be used for the test.
Test of inhibitory activity on cell proliferation: The Cell-Titer Glo kit was used to test the proliferation inhibitory activity of the compounds on LU99 MTAP overexpressing cells. The cell concentration was adjusted, rendering that cells were inoculated into a 384-well plate at 40 µL per well and incubated overnight at 37°C and 5% carbon dioxide. 40 nL of the compound was added to each well to reach a final concentration of 0-10,000 nM (starting concentration 10,000 nM, 2.5-fold dilution, 10 points), and the cell plate with 0.2% DMSO content was incubated at 37°C and 5% carbon dioxide for 6 d. 40 µL of Cell-Titer Glo reagent was added to test cell viability.

| SMILES | IC50 [1] | IC50 [2] | IC50 [3] | IC50 [4] |
| --- | --- | --- | --- | --- |
| CN(C(=O)c1ccc2nc(N)c3c(c2c1)CCO3)C1COC(C)(C)c2cc(C(F)(F)F)ccc21 (stereo not drawn) [Example 4, 4-Amino-N-(1,1-dimethyl-7-(trifluoromethyl)isochroman-4-yl)-N-methyl-1,2-dihydrofuro[2,3-c]quinoline-8-carboxamide] | 1090 nM | 8140 nM | 2260 nM | 3270 nM |
| CN(C(=O)c1cc2c3c(c(N)nc2cn1)COC3)C1COC(C)(C)c2cc(C(F)(F)F)ccc21 (stereo not drawn) [Example 5, 4-Amino-N-(1,1-dimethyl-7-(trifluoromethyl)isochroman-4-yl)-N-methyl-1,3-dihydrofuro[3,4-c][1,7]naphthyridine-8-carboxamide] | 28.2 nM | 7770 nM | 37.1 nM | 4980 nM |
| CN(C(=O)c1ccc2nc(N)c3c(c2c1)OCC3)C1COC(C)(C)c2cc(C(F)(F)F)ccc21 (stereo not drawn) [Example 6, 4-Amino-N-(1,1-dimethyl-7-(trifluoromethyl)isochroman-4-yl)-N-methyl-2,3-dihydrofuro[3,2-c]quinoline-8-carboxamide] | 269 nM | 5950 nM | 355 nM | 5940 nM |
| CN(C(=O)c1ccc2nc(N)c3cnn(C)c3c2c1)C1COC(C)(C)c2cc(-c3cnn(C)c3)ccc21 (stereo not drawn) [Example 7, 4-amino-N-(1,1-dimethyl-7-(1-methyl-1H-pyrazol-4-yl)isochroman-4-yl)-N,1-dimethyl-1H-pyrazolo[4,3-c]quinoline-8-carboxamide] | 5 nM | 2520 nM | 3.6 nM | 3100 nM |
| CN(C(=O)c1ccc2nc(N)c3c(c2c1)COC3)C1COC(C)(C)c2cc(C(F)(F)F)ccc21 (stereo not drawn) [Example 8, 4-Amino-N-(1,1-dimethyl-7-(trifluoromethyl)isochroman-4-yl)-N-methyl-2,3-dihydrofuro[3,4-c]quinoline-8-carboxamide] | 16 nM | 3510 nM | 25.2 nM | 3250 nM |
| CN(C(=O)c1cc2c3c(c(N)nc2cn1)COC3)C1COC(C)(C)c2cc(-c3ccnn3C)ccc21 (stereo not drawn) [Example 9, (4-Amino(1,3-dihydrofuro[3,4-d]pyrido[5,4-b]pyridin-8-yl))-N-[1,1-dimethyl-7-(1-methylpyrazol-5-yl)isochroman-4-yl]-N-methylformamide] | 45.4 nM | > 10000 nM | 85 nM | 9790 nM |
| CN(C(=O)c1ccc2nc(N)c3c(c2c1)COC3)C1COC(C)(C)c2cc(-c3ccnn3C)ccc21 (stereo not drawn) [Example 10, 4-Amino-N-(1,1-dimethyl-7-(1-methyl-1H-pyrazol-5-yl)isochroman-4-yl)-N-methyl-1,3-dihydrofuro[3,4-c]quinoline-8-carboxamide] | 10.1 nM | 2060 nM | 18.3 nM | 3740 nM |
| CC1OCc2c1c(N)nc1ccc(C(=O)N(C)C3COC(C)(C)c4cc(C(F)(F)F)ccc43)cc21 (stereo not drawn) [Example 12, 4-Amino-N-(1,1-dimethyl-7-(trifluoromethyl)isochroman-4-yl)-N,3-dimethyl-1,3-dihydrofuro[3,4-c]quinoline-8-carboxamide] | 21.2 nM | 2610 nM | 32.3 nM | 1990 nM |
| CN(C(=O)c1cc2c(cc1F)nc(N)c1cnn(C)c12)C1COC(C)(C)c2cc(Br)ccc21 (stereo not drawn) [Example 13, (4-Amino-7-fluoro-1-methylpyrazolo[4,5-c]quinolin-8-yl)-N-(7-bromo-1,1-dimethylisochroman-4-yl)-N-methylformamide] | 10.9 nM | 720 nM | 18.9 nM | 1070 nM |
| CN(C(=O)c1cc2c(cc1F)nc(N)c1cnn(C)c12)C1COC(C)(C)c2cc(-c3ccnn3C)ccc21 (stereo not drawn) [Example 14, (4-amino-7-fluoro-1-methylpyrazolo[4,5-c]quinolin-8-yl)-N-[1,1-dimethyl-7-(1-methylpyrazol-5-yl)isochroman-4-yl]-N-methylformamide] | 4.1 nM | 286 nM | 5.9 nM | 309 nM |
| CN(C(=O)c1ccc2nc(N)c3cnn(C)c3c2c1)[C@@H]1COC(C)(C)c2cc(C3CCOCC3)ccc21 [Example 58, (S)-4-amino-N-(1,1-dimethyl-7-(tetrahydro-2H-pyran-4-yl)isochroman-4-yl)-N,1-dimethyl-1H-pyrazolo[4,3-c]quinoline-8-carboxamide] | – | – | 5.5 nM | 987 nM |
| CN(C(=O)c1ccc2nc(N)c3nsnc3c2c1)C1COC2(CCC2)c2cc(C(F)(F)F)ccc21 (stereo not drawn) [Example 59, 4-Amino-N-methyl-N-(7'-(trifluoromethyl)spiro[cyclobutane-1,1'-isochroman]-4'-yl)-[1,2,5]thiadiazolo[3,4-c]quinoline-8-carboxamide] | – | – | 3140 nM | 4020 nM |
| CN(C(=O)c1ccc2nc(N)c3nsnc3c2c1)C1COC(C)(C)c2cc(C(F)(F)F)ccc21 (stereo not drawn) [Example 60, 4-Amino-N-(1,1-dimethyl-7-(trifluoromethyl)isochroman-4-yl)-N-methyl-[1,2,5]thiadiazolo[3,4-c]quinoline-8-carboxamide] | – | – | > 3000 nM | 2950 nM |
| CN(C(=O)c1ccc2nc(N)c3cnn(C)c3c2c1)[C@@H]1COC(C)(C)c2cc(N3CCS(=O)(=O)CC3)ccc21 [Example 78, […]] | – | – | 17 nM | 3740 nM |
| CN(C(=O)c1cc2c(cn1)nc(N)c1cnn(C)c12)C1COC(C)(C)c2cc(C(F)(F)F)ncc21 (stereo not drawn) [Example 79, 4-Amino-N-(1,1-dimethyl-7-(trifluoromethyl)-3,4-dihydro-1H-pyrano[4,3-c]pyridin-4-yl)-N,1-dimethyl-1H-pyrazolo[4,3-c][1,7]naphthyridine-8-carboxamide] | – | – | 41.9 nM | 4380 nM |
| CN(C(=O)c1ccc2nc(N)c3cnn(C)c3c2c1)[C@@H]1COC2(CCCC2)c2cc(C(F)(F)F)ccc21 [Example 82, (S)-4-amino-N,1-dimethyl-N-(7'-(trifluoromethyl)spiro[cyclopentane-1,1'-isochroman]-4'-yl)-1H-pyrazolo[4,3-c]quinoline-8-carboxamide] | – | – | 5.9 nM | 523 nM |
| CN(C(=O)c1ccc2nc(N)c3cnn(C)c3c2c1)[C@@H]1COC(C)(C)c2cc(N3CC4CCC(C3)O4)ccc21 [Example 85, N-[(4S)-1,1-dimethyl-7-(8-oxa-3-azabicyclo[3.2.1]octan-3-yl)isochroman-4-yl](4-amino-1-methylpyrazolo[4,5-c]quinolin-8-yl)-N-methylformamide] | – | – | 7.1 nM | 2140 nM |
